# Where a SMILES comes first, the peptide text is derived from it. [ ]: non-standard residue; d: D form.
# How the values were obtained:
# [1] = aggregation of 1 by UV absorption change of the supernatant; type: physicochemical; conditions: over time, Figure S3, varying [Van]0
# HeLa cells [2] = assay: MTT cell viability, HeLa; type: cell-based
# [3] = isothermal titration calorimetry; type: binding; conditions: ITC of 2 with Van, 25 °C, Figure S6
# HeLa cells [4] = assay: NBD-Van staining of aggregates on HeLa cells, confocal; type: cell-based; conditions: NBD-Van (6 μM) alone
compound,measurement,setting,value
"CN[C@H](CC(C)C)C(=O)N[C@H]1C(=O)N[C@@H](CC(N)=O)C(=O)N[C@H]2C(=O)N[C@H]3C(=O)N[C@H](C(=O)N[C@H](C(=O)O)c4cc(O)cc(O)c4-c4cc3ccc4O)[C@H](O)c3ccc(c(Cl)c3)Oc3cc2cc(c3O[C@@H]2O[C@H](CO)[C@@H](O)[C@H](O)[C@H]2O[C@H]2C[C@](C)(N)[C@H](O)[C@H](C)O2)Oc2ccc(cc2Cl)[C@H]1O [Van, vancomycin, reference compound]",amount of Van in the aggregates,[1],decreases with time
same,cytotoxicity,"HeLa cells [2]; alone, concentration as high as 500 μM, MTT",innocuous
CC(=O)N[C@@H](CCCCN)C(=O)NCC(=O)NCC(=O)N[C@H](C)C(=O)N[C@H](C)C(=O)O [compound 2] (Ac-KGG[dA][dA]-OH),Kd,[3],135 µM
same,binding ratio n,[3],1
same,inhibition of proliferation,HeLa cells [2]; with addition of Van at 500 μM,scarcely inhibits
same,inhibition of proliferation,"HeLa cells [2]; without addition of Van, at 500 μM",scarcely inhibits
7-nitrobenzofurazan-derivatized vancomycin [NBD-Van],fluorescent aggregates with HeLa cells,HeLa cells [4],few aggregates on the cells

# — paper PMC4295010 (Journal of the American Chemical Society, 2014)
